Data reported in patent US20120039826A1, “COSMETIC COMPOSITION FOR SKIN LIGHTENING” (priority 2009, published 2012).

System: Keratinocytes (HaCaT cells)
Assay: Keratinocyte differentiation assay
Type: cell-based
Details: HaCaT cells cultured with active 24 hours, acridine orange, % of control (control = 100)
Experimental: Keratinocyte Differentiation Assay
This is an in vitro cell culture based assay to evaluate the capability of these actives to alter cell differentiation process. Keratinocytes (HaCaT cells—5×10^4 cells/well) were grown in 24 well plates for 24 hours. These proliferating keratinocytes were further cultured with actives for 24 hours. Cells were then washed with PBS and stained with acridine orange in PBS (Sigma Chemical Co, USA). Cells were washed 15 minutes later and viewed using an epi-fluorescent microscope (Olympus BX 50), at 20× magnification, using appropriate excitation and barrier filters, to simultaneously view red and green fluorescence (excitation: 460 nm and emission >515 nm). The entire plate was scanned and the percentage of differentiated keratinocytes (cells with red fluorescence evenly distributed within the cytoplasm) was estimated. Data were represented as % of control. Higher % values indicate increased cell differentiation.

Row | Structure (SMILES) | % Differentiation (concentration 0.01%) [%] | % Differentiation (concentration 0.002%) [%]
1 | O=C([O-])C(O)C(O)C(=O)[O-].[Na+].[Na+] (stereo not drawn) [Na tartarate (c4), Na tartarate] | 165 | 
2 | CC(=O)[O-].[Na+] [Sodium acetate] | 168 | 175
3 | CC(=O)O.N [Ammonium acetate] |  | 175
4 | CC(=O)[O-].CC(=O)[O-].[Mg+2] [Magnesium acetate] | 237 | 250
